Measurements taken from PubChem BioAssay AID248 (DTP/NCI, 2004).
“And” between values parts separate entries of the source, which are not always exact repeats. Identical values can stand only once. Toxic doses and inconclusive results are not listed. No stated cut-off is given here; in the data, active means T/C of 150% or more; inactive means T/C below 125%.

System: L1210 leukemia ip in BDF1 mice, survival T/C
Assay: NCI In Vivo Anticancer Drug Screen. Data for tumor model L1210 Leukemia (intraperitoneal) in B6D2F1 (BDF1) mice
Conditions: endpoint: mean survival time, higher = longer survival
Outline: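 Tumor cells were implanted, animals were treated, and survival was followed. The result divides the treated measurement by the vehicle-control measurement.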

[1] = dose: 100.0 mg/kg/injection, schedule: Q01DX001 (ip), vehicle: Klucel (hydroxypropylcellulose) (HPC)
[2] = dose: 200.0 mg/kg/injection, schedule: Q01DX001 (ip), vehicle: Klucel (hydroxypropylcellulose) (HPC)
[3] = dose: 200.0 mg/kg/injection, schedule: Q01DX001 (ip), vehicle: other
[4] = dose: 400.0 mg/kg/injection, schedule: Q01DX001 (ip), vehicle: other
[5] = dose: 100.0 mg/kg/injection, schedule: Q01DX009 (ip), vehicle: Klucel (hydroxypropylcellulose) (HPC)
[6] = dose: 200.0 mg/kg/injection, schedule: Q01DX009 (ip), vehicle: Klucel (hydroxypropylcellulose) (HPC)
[7] = dose: 400.0 mg/kg/injection, schedule: Q01DX009 (ip), vehicle: Klucel (hydroxypropylcellulose) (HPC)
[8] = dose: 50.0 mg/kg/injection, schedule: Q01DX009 (ip), vehicle: saline
[9] = dose: 100.0 mg/kg/injection, schedule: Q01DX001 (ip), vehicle: saline with Tween-80
[10] = dose: 200.0 mg/kg/injection, schedule: Q01DX001 (ip), vehicle: saline with Tween-80
[11] = dose: 100.0 mg/kg/injection, schedule: Q01DX009 (ip), vehicle: saline
[12] = dose: 200.0 mg/kg/injection, schedule: Q01DX009 (ip), vehicle: saline
[13] = dose: 100.0 mg/kg/injection, schedule: Q04DX003 (ip), vehicle: Klucel (hydroxypropylcellulose) (HPC)
[14] = dose: 200.0 mg/kg/injection, schedule: Q04DX003 (ip), vehicle: Klucel (hydroxypropylcellulose) (HPC)
[15] = dose: 50.0 mg/kg/injection, schedule: Q04DX003 (ip), vehicle: Klucel (hydroxypropylcellulose) (HPC)

Measured: T/C

CC(C)(C)C1=CC(=O)N2CC=CCC2(C#N)C1=O (configuration not stated)
inactive: dose: 50.0 mg/kg/injection, schedule: Q01DX001 (ip), vehicle: Klucel (hydroxypropylcellulose) (HPC) 99 % of control | [1] 99 % of control | [2] 99 % of control

CCCCCCCCCCCCCCCc1cc(O)cc(O)c1
inactive: dose: 50.0 mg/kg/injection, schedule: Q01DX001 (ip), vehicle: other 88 % of control | [3] 95 % of control | [4] 93 % of control

Cc1cccc(OC(=O)Nc2cccc3ccccc23)c1
inactive: [5] 93 % of control | [6] 87 % of control | [7] 96 % of control

N#C/C(=C\C=C\c1ccccc1)c1cccc(Cl)c1
inactive: dose: 87.5 mg/kg/injection, schedule: Q01DX009 (ip), vehicle: Klucel (hydroxypropylcellulose) (HPC) 89 % of control | dose: 175.0 mg/kg/injection, schedule: Q01DX009 (ip), vehicle: Klucel (hydroxypropylcellulose) (HPC) 92 % of control | dose: 350.0 mg/kg/injection, schedule: Q01DX009 (ip), vehicle: Klucel (hydroxypropylcellulose) (HPC) 101 % of control

FC(F)(F)c1ccc2c(c1)N(CCCN1CCN(CCC3OCCCO3)CC1)c1ccccc1S2
inactive: dose: 0.78 mg/kg/injection, schedule: Q04DX003 (ip), vehicle: saline 102 % of control | dose: 1.56 mg/kg/injection, schedule: Q04DX003 (ip), vehicle: saline 101 % of control | dose: 3.12 mg/kg/injection, schedule: Q04DX003 (ip), vehicle: saline 102 % of control | dose: 6.25 mg/kg/injection, schedule: Q04DX003 (ip), vehicle: saline 96 % of control | dose: 12.5 mg/kg/injection, schedule: Q04DX003 (ip), vehicle: saline 112 % of control

Cc1c2ccccc2c(CNCCSCCCl)c2ccc3ccccc3c12
inactive: [8] 119 % of control | dose: 150.0 mg/kg/injection, schedule: Q01DX009 (ip), vehicle: saline 109 % of control | dose: 167.0 mg/kg/injection, schedule: Q01DX009 (ip), vehicle: saline 94 % of control

Nc1ncnc(N)c1NC(=O)/C=C/c1ccccc1
inactive: [9] 116 % of control | [10] 101 % of control

CN/N=C/c1ccccc1
inactive: dose: 12.5 mg/kg/injection, schedule: Q01DX009 (ip), vehicle: saline with Tween-80 102 % of control | dose: 25.0 mg/kg/injection, schedule: Q01DX009 (ip), vehicle: saline with Tween-80 107 % of control | dose: 50.0 mg/kg/injection, schedule: Q01DX009 (ip), vehicle: saline with Tween-80 97 % of control and 112 % of control | dose: 100.0 mg/kg/injection, schedule: Q04DX002 (ip), vehicle: saline with Tween-80 95 % of control | dose: 200.0 mg/kg/injection, schedule: Q04DX002 (ip), vehicle: saline with Tween-80 92 % of control

N#CC(Nc1ccccc1C(N)=O)c1ccccc1 (configuration not stated)
inactive: [11] 95 % of control | [12] 106 % of control | dose: 400.0 mg/kg/injection, schedule: Q01DX009 (ip), vehicle: saline 91 % of control

O=[N+]([O-])/C=C/c1ccc([N+](=O)[O-])o1
inactive: dose: 3.0 mg/kg/injection, schedule: Q01DX001 (ip), vehicle: Klucel (hydroxypropylcellulose) (HPC) 106 % of control | dose: 6.0 mg/kg/injection, schedule: Q01DX001 (ip), vehicle: Klucel (hydroxypropylcellulose) (HPC) 98 % of control | dose: 12.0 mg/kg/injection, schedule: Q01DX001 (ip), vehicle: Klucel (hydroxypropylcellulose) (HPC) 92 % of control | dose: 12.5 mg/kg/injection, schedule: Q01DX001 (ip), vehicle: Klucel (hydroxypropylcellulose) (HPC) 107 % of control

CCOC(=O)C(C)(C)CN(CC(C)(C)C(=O)OCC)C(C)(C)CO
inactive: dose: 100.0 mg/kg/injection, schedule: Q01DX001 (ip), vehicle: other 95 % of control | [3] 98 % of control | [4] 87 % of control

CCC[CH2][Sn]1([CH2]CCC)[O]OC(c2ccccc2)[O]1 (configuration not stated)
inactive: dose: 0.5 mg/kg/injection, schedule: Q01DX009 (ip), vehicle: saline sonified 102 % of control | dose: 1.0 mg/kg/injection, schedule: Q01DX009 (ip), vehicle: saline sonified 98 % of control | dose: 2.0 mg/kg/injection, schedule: Q01DX009 (ip), vehicle: saline sonified 104 % of control

O=C(OCCOCCOCCOC(=O)c1ccccc1)c1ccccc1
inactive: [5] 96 % of control | [13] 112 % of control | [6] 96 % of control | [14] 102 % of control | [7] 102 % of control | dose: 400.0 mg/kg/injection, schedule: Q04DX003 (ip), vehicle: Klucel (hydroxypropylcellulose) (HPC) 99 % of control

OC(c1ccc(F)cc1)(c1ccc(F)cc1)C1CC1
inactive: [9] 106 % of control | [10] 105 % of control

NP(O)(O)=S
inactive: dose: 9.38 mg/kg/injection, schedule: Q01DX001 (ip), vehicle: saline 104 % of control | dose: 18.75 mg/kg/injection, schedule: Q01DX001 (ip), vehicle: saline 98 % of control

COc1ccc2[nH]ccc2c1
inactive: dose: 100.0 mg/kg/injection, schedule: Q01DX009 (ip), vehicle: other 90 % of control | dose: 100.0 mg/kg/injection, schedule: Q04DX003 (ip), vehicle: other 92 % of control | dose: 200.0 mg/kg/injection, schedule: Q01DX009 (ip), vehicle: other 104 % of control | dose: 200.0 mg/kg/injection, schedule: Q04DX003 (ip), vehicle: other 105 % of control | dose: 400.0 mg/kg/injection, schedule: Q01DX009 (ip), vehicle: other 88 % of control | dose: 400.0 mg/kg/injection, schedule: Q04DX003 (ip), vehicle: other 94 % of control

S=C1NCc2ccccc2N1
inactive: dose: 12.5 mg/kg/injection, schedule: Q04DX003 (ip), vehicle: Klucel (hydroxypropylcellulose) (HPC) 93 % of control | dose: 25.0 mg/kg/injection, schedule: Q04DX003 (ip), vehicle: Klucel (hydroxypropylcellulose) (HPC) 95 % of control | [15] 103 % of control | [1] 102 % of control

CC(C)=CCc1c2c(c3occ(-c4ccc(O)c(O)c4)c(=O)c3c1O)C=CC(C)(C)O2
inactive: [15] 93 % of control | [13] 100 % of control | [14] 104 % of control

S=C(NCc1ccccc1)c1ccccc1
inactive: [1] 106 % of control | [2] 108 % of control | dose: 400.0 mg/kg/injection, schedule: Q01DX001 (ip), vehicle: Klucel (hydroxypropylcellulose) (HPC) 104 % of control

CCOC(=O)C(=[N+]=[N-])C(F)(F)F
inactive: [8] 102 % of control | [11] 102 % of control | [12] 95 % of control

O=C(OCc1ccccc1CN1CCOCC1)c1ccc(Cl)cc1
inactive: dose: 100.0 mg/kg/injection, schedule: Q04DX002 (ip), vehicle: Klucel (hydroxypropylcellulose) (HPC) 103 % of control | dose: 200.0 mg/kg/injection, schedule: Q04DX002 (ip), vehicle: Klucel (hydroxypropylcellulose) (HPC) 106 % of control | dose: 400.0 mg/kg/injection, schedule: Q04DX002 (ip), vehicle: Klucel (hydroxypropylcellulose) (HPC) 100 % of control
